Reference: publication PMC10180197, “Novel Pyrimidine Derivatives as Antioxidant and Anticancer Agents: Design, Synthesis and Molecular Modeling Studies” (Molecules, 2023)
Where two headings read alike, the source gives them in different places.

What was measured:
[1] = molecular target: T1, soybean lipoxygenase (Glycine max, UniProt P08170); assay: Inhibition of soybean lipoxygenase; type: biochemical; settings: for IC50: cells of the mixed column with μM, read-out: LOX IC50; for inhibition at 100 µM: read-out: LOX % Inhibition 100 μM
T1 construct: purchased Sigma Aldrich- Merck KGaA, Darmstadt, Germany
T1 sequence (P08170 1-839): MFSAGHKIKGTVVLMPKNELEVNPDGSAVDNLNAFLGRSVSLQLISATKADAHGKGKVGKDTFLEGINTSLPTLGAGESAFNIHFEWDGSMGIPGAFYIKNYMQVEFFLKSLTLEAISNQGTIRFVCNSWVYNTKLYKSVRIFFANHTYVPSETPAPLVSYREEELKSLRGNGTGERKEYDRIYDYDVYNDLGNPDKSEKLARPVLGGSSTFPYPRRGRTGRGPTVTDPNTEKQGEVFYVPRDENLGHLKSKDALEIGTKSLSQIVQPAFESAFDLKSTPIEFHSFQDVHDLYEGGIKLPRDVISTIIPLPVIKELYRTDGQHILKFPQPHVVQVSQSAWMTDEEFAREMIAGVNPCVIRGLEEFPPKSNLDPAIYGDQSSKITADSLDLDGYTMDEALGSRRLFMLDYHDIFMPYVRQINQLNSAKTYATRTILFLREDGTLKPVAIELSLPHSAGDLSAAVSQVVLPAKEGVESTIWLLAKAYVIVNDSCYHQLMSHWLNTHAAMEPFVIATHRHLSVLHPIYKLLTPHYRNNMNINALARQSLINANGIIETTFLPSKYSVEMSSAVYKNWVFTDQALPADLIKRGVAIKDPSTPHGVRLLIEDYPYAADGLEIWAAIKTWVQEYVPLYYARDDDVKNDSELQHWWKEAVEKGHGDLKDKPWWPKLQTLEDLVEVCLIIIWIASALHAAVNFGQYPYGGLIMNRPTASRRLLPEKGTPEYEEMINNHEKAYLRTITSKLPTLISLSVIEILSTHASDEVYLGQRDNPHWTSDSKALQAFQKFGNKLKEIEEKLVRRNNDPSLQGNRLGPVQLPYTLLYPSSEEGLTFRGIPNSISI
Text: Lipoxygenase (LOX) is the key enzyme in the biosynthesis of inflammatory mediators; thus, it is considered a target for inflammatory diseases. Soybean LOX is a plant enzyme that has been used widely as a prototype for studying the functional and structural properties of the homologous family of lipoxygenases, presenting satisfactory homology with the human 5-LOX [42]. Linoleic acid is the most common substrate in plant LOX. […] Lipophilicity is considered one of the most important parameters with regard to LOX inhibitors according to the literature.
In vitro study was performed as reported previously by our group. In this experiment, 10 μL of the tested compound (from the stock solution) were incubated with 100 μL sodium linoleate (diluted in Tris buffer), 200 μL LOX solution (1:9 × 10^−4 w/v in saline) and 690 μL Tris buffer (pH 9.0) at room temperature. The absorbance was measured at 234 nm, where the change of absorbance was recorded due to the formation of 13-hydroperoxy-linoleic acid. […] In order to determine the IC50 values, different concentrations were used.

[2] = Inhibition of AAPH induced linoleic acid peroxidation
Description: For the lipid peroxidation study, 2,2′-Azobis(2-methylpropionamidine) dihydrochloride (AAPH) was used as the generator of peroxy radicals and sodium linoleate as the substrate that undergoes peroxidation. The conversion of linoleic acid to 13-hydroperoxy-linoleic acid was recorded at 234 nm. The change of absorbance reflects the possible antioxidant activity of the tested compounds, in comparison with the reference compound, Trolox.
In vitro study was performed as reported previously by our group. AAPH was used as a free radical generator of alkyl peroxyl radicals. For this experimental procedure, 10 μL of the tested compound (from the stock solution), 10 μL sodium linoleate (16 mM), 50 μL AAPH (40 mM) and 930 μL phosphate-buffered solution (pH 7.4) were added in a UV cuvette (1 mL), pre thermostated at 37 °C. The ability of the compounds to prevent the oxidation of linoleic acid from alkyl peroxyl radicals was evaluated by recording the change of absorbance at 234 nm, due to the conversion of linoleic acid to 13-hydroperoxy-linoleic acid. Trolox was used as the reference.

[3] = 100 μM, cells of the mixed column without μM

Row | melting point | IC50 [1] | inhibition at 100 µM [1, 3] | LOX % Inhibition 100 μM [1, 3] | SMILES | AAPH % Inhibition 100 μM [2] | AAPH % Inhibition 100 μM ([2]; 100 µM)
1 | 260 to 262 °C | 68.5 µM | – | – | O=c1[nH]c(=S)[nH]c2nc(-c3ccccc3)cc(-c3cccs3)c12 [Compound 2c, 7-phenyl-5-(thiophen-2-yl)-2-thioxo-2,3-dihydropyrido [2,3-d]pyrimidin-4(1H)-one] | 52% | –
2 | > 300 °C | 54 µM | – | – | O=c1[nH]c(=S)[nH]c2nc(-c3ccccc3)cc(-c3ccc(Cl)cc3Cl)c12 [Compound 2g, 5-(2,4-dichlorophenyl)-7-phenyl-2-thioxo-2,3-dihydropyrido [2,3-d]pyrimidin-4(1H)-one] | 95% | –
3 | – | – | 39% | – | O=C(/C=C/c1ccccc1)c1ccc(Cl)cc1 [Compound 1b, (E)-1-(4-chlorophenyl)-3-phenylprop-2-en-1-one] | 51% | –
4 | > 300 °C | 76 µM | – | – | O=c1[nH]c(=S)[nH]c2nc(-c3ccccc3)cc(-c3ccc(Cl)cc3)c12 [Compound 2e, 5-(4-chlorophenyl)-7-phenyl-2-thioxo-2,3-dihydropyrido [2,3-d]pyrimidin-4(1H)-one] | 33% | –
5 | > 300 °C | – | 6% | – | O=c1[nH]c(=S)[nH]c2nc(-c3ccc(Cl)cc3)cc(-c3ccccc3)c12 [Compound 2b, 7-(4-chlorophenyl)-5-phenyl-2-thioxo-2,3-dihydropyrido [2,3-d]pyrimidin-4(1H)-one] | 62% | –
6 | 68 to 70 °C | 17 µM | – | – | O=C(/C=C/c1ccc(Cl)cc1Cl)c1ccccc1 [Compound 1g, (E)-3-(2,4-dichlorophenyl)-1-phenylprop-2-en-1-one] | 39% | –
7 | – | 72.5 µM | – | – | O=C(/C=C/c1cccs1)c1ccc(Cl)cc1 [Compound 1d, (E)-1-(4-chlorophenyl)-3-(thiophen-2-yl)prop-2-en-1-one] | 8% | –
8 | > 300 °C | 70 µM | – | – | O=c1[nH]c(=S)[nH]c2nc(-c3ccc(Cl)cc3)cc(-c3cccs3)c12 [Compound 2d, 7-(4-chlorophenyl)-5-(thiophen-2-yl)-2-thioxo-2,3-dihydropyrido [2,3-d]pyrimidin-4(1H)-one] | 62% | –
9 | 160 to 162 °C | – | 4% | – | O=C(/C=C/c1ccc(Cl)cc1)c1ccc(Cl)cc1 [Compound 1f, (E)-1,3-bis(4-chlorophenyl)prop-2-en-1-one] | 51% | –
10 | > 300 °C | 42 µM | – | – | O=c1[nH]c(=S)[nH]c2nc(-c3ccccc3)cc(-c3ccccc3)c12 [Compound 2a, 5,7-diphenyl-2-thioxo-2,3-dihydropyrido [2,3-d]pyrimidin-4(1H)-one] | 52% | –
11 | – | 55.5 µM | – | – | O=C(/C=C/c1ccc(Cl)cc1)c1ccccc1 [Compound 1e, (E)-3-(4-chlorophenyl)-1-phenylprop-2-en-1-one] | 4% | –
12 | – | – | – | no | O=C(/C=C/c1ccc(Cl)cc1Cl)c1ccc(Cl)cc1 [Compound 1h, (E)-1-(4-chlorophenyl)-3-(2,4-dichlorophenyl)prop-2-en-1-one] | 2% | –
13 | > 300 °C | 47.5 µM | – | – | O=c1[nH]c(=S)[nH]c2nc(-c3ccc(Cl)cc3)cc(-c3ccc(Cl)cc3)c12 [Compound 2f, 5,7-bis(4-chlorophenyl)-2-thioxo-2,3-dihydropyrido [2,3-d]pyrimidin-4(1H)-one] | no activity | no
14 | – | – | 26% | – | O=C(/C=C/c1ccccc1)c1ccccc1 [Compound 1a, (E)-1,3-diphenylprop-2-en-1-one] | 6% | –
15 | 274 to 276 °C | – | 27% | – | O=c1[nH]c(=S)[nH]c2nc(-c3ccc(Cl)cc3)cc(-c3ccc(Cl)cc3Cl)c12 [Compound 2h, 7-(4-chlorophenyl)-5-(2,4-dichlorophenyl)-2-thioxo-2,3-dihydropyrido [2,3-d]pyrimidin-4(1H)-one] | 99% | –
